For series [1], the system named is MV411 cells. Briefly: MTS cytotoxicity assay against MV411 cells. Conditions: Homo sapiens, MV4-11; for IC50: defined as log(nM IC50), MV411, read-out: pIC50 (converted); for pIC50: growth inhibition, MV411 cells, MTS, read-out: IC50. In kind it is cell-based. How it is done:
(§1) The obtained compounds were tested in biological experiments to measure their potency in inhibiting the growth of AML cells and in their degradation of CDK9. These measurements are reported as half-maximum growth inhibitory and half-maximum degradation concentrations, IC50s and DC50s, respectively. Maximum percent degradation (Dmax) values were also obtained during the CDK9 degradation assessments. The common MTS assay was used to acquire the IC50 values, while the DC50 values were obtained using an automated western blot experiment. These values are presented in Table 2, along with pIC50 (log(nM IC50)) to more accurately reflect the differences/lack thereof in in vitro cytotoxicity. The notation “N:N*” represents the number of linker atoms on each side of the rigid triazole ring for a given degrader. Predicted log D values, calculated using the ChemAxon […], are also provided for each degrader. To characterize the physicochemical properties of the new degrader series, two additional assays were performed: a kinetic aqueous solubility assay and the chromatographic log D experiment described earlier. Aqueous solubility is shown in μM while experimentally determined log D is shown as log k′80. Details regarding the execution of each experiment are provided below.

Series [2] addresses T1, CDK9 (Homo sapiens, UniProt P50750+Q96SW2).
T1 construct: endogenous in cells
Briefly: CDK9 degradation, automated western blot, triazole-containing AT7519 degraders (MV411). Conditions: for DC50: CDK9 degradation, MV411 cells; for Dmax: MV4-11, maximum percent CDK9 degradation. In kind it is cell-based. How it is done:
as §1

Series [3] can be described thus: Chromatographic log D determination (log k′80). The format is physicochemical. As to conditions: chromatographic log D, PLRP-S column, pH 7.72. How it is done: Chromatographic Log D Determination. Test samples were prepared from 10 mM stock solutions in DMSO, to make 122 μM solutions in acetonitrile. Retention times were determined on a Shimadzu High Performance Liquid Chromatography (HPLC) system with Agilent PLRP-S column, 100 Å, 5 um particle size, 50×4.6 mm (part no.: PL1512-1500) with 1 mL/min flow rate. A 65 mM aqueous solution of ammonium acetate was prepared in water and diluted with acetonitrile to give 0.1% ammonium acetate 20:80 acetonitrile solution with pH 7.72. Eluents were detected with UV spectrophotometry at 337 nm. As a standard set, the retention times of β-estradiol, nifedipine, quinoline, phenol and 2-nitrophenol were determined (log k′80) and the dead time was extrapolated based on the reported log k′80 values originally reported by Caron et. al (log k′80*). The average value of the dead time for the standard set was 0.3001 minutes. Therefore, for consistency, 0.3 minutes was used as the dead time for all test samples. Experiments were performed in triplicate with a maximum percent standard deviation of 6.85%.

The nature of series [4]: Kinetic solubility assay. Conditions: kinetic solubility, PBS pH 7.4; for solubility at 1.5 h: phosphate buffered saline, pH 7.4, aqueous buffer, kinetic from dmso stock, Solubility (μM).
Method: Kinetic Solubility Assay. Kinetic solubility (KS) was measured according to Millipore protocol PC2445 EN00. Test compounds were weighed and diluted with DMSO to 10 mM. From the stock solutions as well as blank (100% DMSO) was taken 17.5 μL and diluted to 500 μM with 332.5 μL of 100 mM phosphate Buffered Saline (PPBS) at pH 7.4 in a 96-well quartz plate. From the 500 μM solutions was taken 150 μL and dispensed into a 96-well Millipore filter plate (Product number: MSSLBPC10). In the quartz plate, serial dilutions were performed down to 0.5 μM using the 100 mM PBS solution, leaving 100 μL of each test sample at 11 different concentrations, representing standards. These steps were performed in triplicate, at minimum, for each test compound. Both plates were shaken on an orbital shaker at 150 rpm for 1.5 hours. The contents of the filter plate were filtered and 100 μL of the filtrate from each well was dispensed into the quartz plate containing standards. The quartz plate was then analyzed using a UV plate reader where absorbance was measured at the relevant wavelength for each compound. After blank subtraction, for each test sample, solubility was determined based on the optical density of filtered samples and the equations derived from the corresponding linear standard curve.
Series [5] relates to MOLM13 cells. Briefly: Cytotoxicity against MOLM13 cells. In kind it is cell-based. The text has this: (§2) Through amide coupling using I-ethyl-3-carbodiimide hydrochloride (EDC.HCl), the alkynyl derivatives of 4.16, 4.29 and 4.30 were synthesized. Using these VIP152-derivatives, degraders 4.31, 4.33 and 4.34 were synthesized using click chemistry. Degrader 4.32 was also synthesized using amide coupling conditions with (1-[Bis([…])methylene]-1H-1,2,3-triazolo[4,5-b]pyridinium 3-oxide hexafluorophosphate (HATU) and the carboxylic acid 4.28. Scheme 7 illustrates the synthesis of this initial series. The series was evaluated for cytotoxicity against MOLM13 cells (IC50) and for their CDK9 degradation potency (DC50). The results are provided in Table 3.

Series [6] concerns the target T1, CDK9. Briefly: CDK9 degradation potency (DC50) of VIP152-based degraders. The format is cell-based. Conditions: VIP152-based series.
Source text: as §2

The test system of series [7] is MOLM13 cells. The experiment in a line: Protein shift experiment, cytotoxicity in FBS vs human serum, MOLM13. The format is cell-based. The text has this: In order to determine the suitability of the lead compounds for advanced biological studies, the four degraders (4.49, 4.62, 4.72 and 4.78) were selected for a protein-shift analysis due to their higher potency and solubility.

The mark [8] stands for this setting: Homo sapiens, MOLM-13, cytotoxicity, MOLM13 cells, read-out: IC50.
The mark [9] stands for this setting: Homo sapiens, MOLM-13, MOLM13, fetal bovine serum, read-out: IC50 (μM) FBS.
Setting [10] is: MOLM-13, MOLM13, human serum, read-out: IC50 (μM) HS.
[11] abbreviates: cytotoxicity, MOLM13 cells, read-out: IC50.
Setting [12] is: MOLM13, fetal bovine serum, read-out: IC50 (μM) FBS.
[13] abbreviates: MOLM13, human serum, read-out: IC50 (μM) HS.

pIC50: −log10 of the molar value. In brackets after ≈: the same amount, converted by molar mass. Several values for one entry are separate records, joined by “and”; a condition that tells them apart may be missing. Equal values may be shown once. Read-outs that look alike come from different tables or passages of the source.

T1 sequence (P50750 whole entry): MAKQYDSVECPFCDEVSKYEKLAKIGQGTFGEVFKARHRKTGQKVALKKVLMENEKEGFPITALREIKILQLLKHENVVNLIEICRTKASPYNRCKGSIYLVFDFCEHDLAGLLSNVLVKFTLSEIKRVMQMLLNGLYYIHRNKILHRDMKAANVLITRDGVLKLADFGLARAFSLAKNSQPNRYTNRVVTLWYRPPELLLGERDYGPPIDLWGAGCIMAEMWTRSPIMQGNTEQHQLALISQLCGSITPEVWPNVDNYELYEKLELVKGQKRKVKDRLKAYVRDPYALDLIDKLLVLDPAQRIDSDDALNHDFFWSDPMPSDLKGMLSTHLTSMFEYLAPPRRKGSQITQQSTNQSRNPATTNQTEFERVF
T1 sequence (O60563 whole entry partner): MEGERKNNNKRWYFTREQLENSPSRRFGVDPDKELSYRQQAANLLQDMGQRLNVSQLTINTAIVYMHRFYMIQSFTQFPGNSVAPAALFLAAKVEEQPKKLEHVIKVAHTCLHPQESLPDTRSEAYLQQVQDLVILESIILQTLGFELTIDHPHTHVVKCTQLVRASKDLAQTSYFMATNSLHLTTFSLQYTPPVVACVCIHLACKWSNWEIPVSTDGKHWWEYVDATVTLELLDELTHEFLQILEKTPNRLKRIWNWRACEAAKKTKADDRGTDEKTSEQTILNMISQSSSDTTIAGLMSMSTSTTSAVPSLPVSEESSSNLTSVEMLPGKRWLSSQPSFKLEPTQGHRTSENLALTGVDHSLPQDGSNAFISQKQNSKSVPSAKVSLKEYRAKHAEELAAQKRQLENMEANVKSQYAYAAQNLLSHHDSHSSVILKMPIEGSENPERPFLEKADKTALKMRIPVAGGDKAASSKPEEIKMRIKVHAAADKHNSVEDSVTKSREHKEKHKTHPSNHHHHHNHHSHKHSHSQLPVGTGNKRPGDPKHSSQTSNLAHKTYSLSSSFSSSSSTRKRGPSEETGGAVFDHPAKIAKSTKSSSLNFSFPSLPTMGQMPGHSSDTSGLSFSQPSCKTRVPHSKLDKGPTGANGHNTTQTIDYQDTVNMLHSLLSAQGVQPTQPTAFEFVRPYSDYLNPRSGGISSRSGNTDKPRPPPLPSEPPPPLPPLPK
T1 sequence (Q96SW2 whole entry): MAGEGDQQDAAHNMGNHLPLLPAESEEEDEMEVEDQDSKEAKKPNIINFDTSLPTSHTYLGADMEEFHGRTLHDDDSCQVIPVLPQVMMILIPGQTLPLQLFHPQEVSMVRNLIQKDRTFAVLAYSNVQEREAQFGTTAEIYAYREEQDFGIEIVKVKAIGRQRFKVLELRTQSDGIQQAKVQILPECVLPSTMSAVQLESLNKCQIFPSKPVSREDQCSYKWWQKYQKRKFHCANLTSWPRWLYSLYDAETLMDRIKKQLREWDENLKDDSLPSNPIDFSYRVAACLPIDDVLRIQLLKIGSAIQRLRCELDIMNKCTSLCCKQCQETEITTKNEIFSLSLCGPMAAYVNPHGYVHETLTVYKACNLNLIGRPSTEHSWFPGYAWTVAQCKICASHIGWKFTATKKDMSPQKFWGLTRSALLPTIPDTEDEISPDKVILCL
T1 sequence (Q16531 whole entry partner): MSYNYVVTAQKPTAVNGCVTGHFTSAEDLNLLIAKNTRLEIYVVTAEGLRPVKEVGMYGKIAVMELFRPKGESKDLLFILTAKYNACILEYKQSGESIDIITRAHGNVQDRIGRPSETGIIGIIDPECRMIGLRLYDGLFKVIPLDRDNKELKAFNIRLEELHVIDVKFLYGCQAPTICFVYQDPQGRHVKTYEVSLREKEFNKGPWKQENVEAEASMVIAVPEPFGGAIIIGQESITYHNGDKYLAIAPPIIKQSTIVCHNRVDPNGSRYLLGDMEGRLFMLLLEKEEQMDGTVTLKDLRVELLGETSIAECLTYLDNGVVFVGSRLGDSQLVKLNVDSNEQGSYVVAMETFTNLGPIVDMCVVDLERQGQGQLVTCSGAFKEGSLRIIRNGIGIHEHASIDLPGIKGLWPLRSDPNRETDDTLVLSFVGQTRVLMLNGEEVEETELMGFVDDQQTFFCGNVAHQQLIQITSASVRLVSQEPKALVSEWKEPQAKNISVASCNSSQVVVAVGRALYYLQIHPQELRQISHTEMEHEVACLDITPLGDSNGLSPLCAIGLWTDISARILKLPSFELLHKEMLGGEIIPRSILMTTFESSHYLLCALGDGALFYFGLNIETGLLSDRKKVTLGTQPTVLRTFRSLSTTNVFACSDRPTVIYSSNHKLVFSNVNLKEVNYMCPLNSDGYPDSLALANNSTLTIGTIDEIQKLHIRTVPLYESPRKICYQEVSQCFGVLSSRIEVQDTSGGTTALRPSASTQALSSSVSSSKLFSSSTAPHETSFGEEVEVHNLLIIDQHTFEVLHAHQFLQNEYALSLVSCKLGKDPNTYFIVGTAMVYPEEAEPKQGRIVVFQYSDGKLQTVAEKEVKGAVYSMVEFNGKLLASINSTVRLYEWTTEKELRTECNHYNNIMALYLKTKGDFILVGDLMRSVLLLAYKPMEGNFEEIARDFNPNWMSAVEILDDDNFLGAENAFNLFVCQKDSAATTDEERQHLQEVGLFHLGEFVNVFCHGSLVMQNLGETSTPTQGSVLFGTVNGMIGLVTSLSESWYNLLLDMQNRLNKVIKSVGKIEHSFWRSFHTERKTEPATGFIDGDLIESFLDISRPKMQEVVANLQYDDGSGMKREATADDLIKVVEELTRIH

Regarding `O=C1CCC(N2C(=O)c3cccc(OCCCn4cc(CCCCCCN5CCC(NC(=O)c6n[nH]cc6NC(=O)c6c(Cl)cccc6Cl)CC5)nn4)c3C2=O)C(=O)N1` (centres unmarked) [Compound 4.8c, 4-(2,6-dichlorobenzamido)-N-(1-(6-(1-(3-((2(2,6-dioxopiperidin-3-yl)-1,3-dioxoisoindolin-4-yl)oxy)propyl)-1H-1,2,3-triazol-4-yl)hexyl)piperidin-4-yl)-1H-pyrazole-3-carboxamide], in series [1], the IC50 was 79.4 nM and the pIC50 is 7.15. For the same compound, in series [2], it took 98.9 nM to reach half-maximal degradation (DC50) and the Dmax (in general, the greatest extent of degradation seen) turned out to be 75.3%. In addition, the “logk′80” value in series [3] worked out at 0.116. For the same compound, in series [4], the solubility – broadly, the dissolved amount per volume that the medium holds – at 1.5 h was found to be 12.9 µM (≈ 10.9 µg/mL).

Consider `O=C1CCC(N2C(=O)c3cccc(OCCCCCCCn4cc(CCCCCCN5CCC(NC(=O)c6n[nH]cc6NC(=O)c6c(Cl)cccc6Cl)CC5)nn4)c3C2=O)C(=O)N1` (centres unmarked) [Compound 4.9a, 4-(2,6-dichlorobenzamido)-N-(1-(6-(1-(7-((2-(2,6-dioxopiperidine-3-yl)-1,3-dioxoisoindolin-4-yl)oxy)heptyl)-1H-1,2,3-triazol-4-yl)hexyl)piperidin-4-yl)-1H-pyrazole-3-carboxamide], for which, in series [1], the IC50 is 79.4 nM and the pIC50 was 7.14. For the same compound, in series [2], half-maximal degradation (DC50) was put at 74.6 nM and the Dmax came to 86.2%. In addition, the “logk′80” value in series [3] worked out at 0.184. Further, in series [4], the concentration in solution (solubility at 1.5 h) was 2.38 µM (≈ 2.15 µg/mL).

With `COc1cc(F)ccc1-c1cc(Nc2cc(CS(C)(=O)=NC(=O)CCc3cn(CCOCCOCCOc4cccc5c4C(=O)N(C4CCC(=O)NC4=O)C5=O)nn3)ccn2)ncc1F` (centres unmarked) [Compound 4.34, 3-(1-(2-(2-(2-((2-(2,6-dioxopiperidin-3-yl)-1,3-dioxoisoindolin-4-yl)oxy)ethoxy)ethoxy)ethyl)-1H-1,2,3-triazol-4-yl)-N-(((2-((5-fluoro-4-(4-fluoro-2-methoxyphenyl)pyridin-2-yl)amino)pyridin-4-yl)methyl)(methyl)(oxo)-16-sulfaneylidene)propenamide], in series [5] (setting [8]), the pIC50 was 7.22. For the same compound, in series [6], the DC50 – broadly, the concentration giving 50% degradation – stood at 70 nM. Also, the “logk′80” value in series [3] is 0.13 and 0.16. The IC50 worked out at 0.29 µM in series [7] (setting [9]) and 1.52 µM in series [7] (setting [10]). Further, the concentration in solution in series [4] (solubility at 1.5 h) was 5.2 µM (≈ 4.76 µg/mL).

In the case of `COc1cc(F)ccc1-c1cc(Nc2cc(CS(C)(=O)=NC(=O)CN3CCN(Cc4cn(C5CN(C(=O)CNc6cccc7c6C(=O)N(C6CCC(=O)NC6=O)C7=O)C5)nn4)CC3)ccn2)ncc1F` (centres unmarked) [Compound 4.49, 2-(4-((1-(1-((2-(2,6-dioxopiperidin-3-yl)-1,3-dioxoisoindolin-4-yl)glycyl)azetidin-3-yl)-1H-1,2,3-triazol-4-yl)methyl)piperazin-1-yl)-N-(((2-((5-fluoro-4-(4-fluoro-2-methoxyphenyl)pyridin-2-yl)amino)pyridin-4-yl)methyl)(methyl) (oxo)-16-sulfaneylidene) acetamide], the pIC50 in series [5] (setting [8]) was 6.38; in series [5] (Homo sapiens, MOLM-13, text, MOLM13, read-out: potency) it was 6.38. In series [6], the DC50 was 220 nM. In addition, the IC50 in series [7] (setting [9]) was found to be 0.67 µM; in series [7] (setting [10]), 1.24 µM. For the same compound, the Solubility (in general, the dissolved amount per volume that the medium holds) in series [4] is 58.2 µM (≈ 57 µg/mL). In addition, the solubility at 1.5 h in series [4] is ~60 µM (≈ 58.8 µg/mL).

Turning to `COc1cc(F)ccc1-c1cc(Nc2cc(CS(C)(=O)=NC(=O)C3CCCN(Cc4cn(C5CN(C(=O)CNc6cccc7c6C(=O)N(C6CCC(=O)NC6=O)C7=O)C5)nn4)C3)ccn2)ncc1F` (centres unmarked) [Compound 4.62], the pIC50 in series [5] (setting [11]) was 6.44. The compound also had a DC50 in series [6] of 150 nM. In series [3], the “logk′80” value was 0.11. Besides, the IC50 in series [7] (setting [12]) came out at 0.49 µM; in series [7] (setting [13]), 1.34 µM. Also, the “Solubility” value in series [4] worked out at 13.8 µM (≈ 13.3 µg/mL).

`COc1cc(F)ccc1-c1cc(Nc2cc(CS(C)(=O)=NC(=O)CN3CCC(c4cn(CC(=O)N5CCN(CCCc6cccc7c6C(=O)N(C6CCC(=O)NC6=O)C7=O)CC5)nn4)CC3)ccn2)ncc1F` (centres unmarked) [Compound 4.72, 2-(4-(1-(2-(4-(3-(2-(2,6-dioxopiperidin-3-yl)-1,3-dioxoisoindolin-4-yl)propyl)piperazin-1-yl)-2-oxoethyl)-1H-1,2,3-triazol-4-yl)piperidin-1-yl)-N-(((2-((5-fluoro-4-(4-fluoro-2-methoxyphenyl)pyridin-2-yl)amino)pyridin-4-yl)methyl)(methyl) (oxo)-16-sulfaneylidene) acetamide]: the pIC50 in series [5] (MOLM13, read-out: potency) is 6.82; in series [5] (setting [11]), 6.74. In series [6], it took 210 nM to reach half-maximal degradation (DC50). For the same compound, the “logk′80” value in series [3] is reported as 0.11. Further, the IC50 in series [7] (setting [12]) was found to be 0.47 µM; in series [7] (setting [13]) it was 0.55 µM. Moreover, the “Solubility” value in series [4] was 16 µM and 15.7 µM.

On to `COc1cc(F)ccc1-c1cc(Nc2cc(CS(C)(=O)=NC(=O)CCc3cn(CC4CCN(C5CN(C(=O)CNc6cccc7c6C(=O)N(C6CCC(=O)NC6=O)C7=O)C5)CC4)nn3)ccn2)ncc1F` (centres unmarked) [Compound 4.89, 3-(1-((1-(1-((2-(2,6-dioxopiperidin-3-yl)-1,3-dioxoisoindolin-4-yl)glycyl)azetidin-3-yl)piperidin-4-yl)methyl)-1H-1,2,3-triazol-4-yl)-N-(((2-((5-fluoro-4-(4-fluoro-2-methoxyphenyl)pyridin-2-yl)amino)pyridin-4-yl)methyl)(methyl) (oxo)-26-sulfaneylidene) propanamide], for which the pIC50 in series [5] (setting [8]) was 6.77. For the same compound, it took 80 nM to reach half-maximal degradation in series [6] (DC50). Also, the “logk′80” value in series [3] amounted to 0.09. Also, the solubility at 1.5 h in series [4] was 1.8 µM (≈ 1.79 µg/mL).

Take `COc1cc(F)ccc1-c1cc(Nc2cc(CS(C)(=O)=NC(=O)CCC(=O)N3CC(N4CCC(Cn5cc(CNC(=O)CNc6cccc7c6C(=O)N(C6CCC(=O)NC6=O)C7=O)nn5)CC4)C3)ccn2)ncc1F` (centres unmarked) [Compound 4.90, 4-{3-[4-({4-[(2˜ {[2˜ (2,6-dioxopiperidin-3-yl)-1,3-dioxo-2,3-dihydro-1H-isoindol-4-yl]amino}acetamido)methyl]-1H-1,2,3-triazol-1-yl}methyl)piperidin-1-yl]azetidin-1-yl}-N-{[(2-{[5-fluoro-4-(4-fluoro-2-methoxyphenyl)pyridin-2-yl]amino}pyridin-4-yl)methyl](methyl)oxo-λ^6-sulfanylidene}-4-oxobutanamide]: the pIC50 in series [5] (setting [8]) was 5.86. The compound further gave a DC50 in series [6] of 900 nM. For the same compound, the “logk′80” value in series [3] was determined as 0.07. Further, the concentration in solution in series [4] (solubility at 1.5 h) came to 8.3 µM (≈ 8.72 µg/mL).

With `COc1cc(F)ccc1-c1cc(Nc2cc(CS(C)(=O)=NC(=O)CCC(=O)N3CC(N4CCC(Cn5cc(COc6cccc7c6C(=O)N(C6CCC(=O)NC6=O)C7=O)nn5)CC4)C3)ccn2)ncc1F` (centres unmarked) [Compound 4.91], in series [5] (setting [8]), the pIC50 was 6.23. The DC50 in series [6] was 260 nM. Also, in series [3], the “logk′80” value was 0.09. In addition, the concentration in solution in series [4] (solubility at 1.5 h) was 3.8 µM (≈ 3.78 µg/mL).

For the origin of these results see patent US20250236607A1, “CYCLIN-DEPENDENT KINASE 9 (CDK9) DEGRADERS AND METHODS OF USING THEREOF” (OHIO STATE INNOVATION FOUNDATION, priority 2022, published 2025).
